# Results taken from PMC10530362, “Light-Sensitive Open Channel Block of Ionotropic Glutamate Receptors by Quaternary Ammonium Azobenzene Derivatives” (International Journal of Molecular Sciences, 2023).
# Legend:
# [1] = system: T1, NMDA receptors (native, hippocampal CA1 pyramidal neurons); assay: whole-cell patch clamp, NMDA-evoked steady-state current; format: cell-based, Rattus norvegicus; conditions: dark (trans), -70 mV, 100 µM NMDA + 10 µM glycine, pH 7.4, 22-24 °C; voltage-dependent foot-in-the-door pore block; unit inferred, µM from context
# T1 construct: gene Grin1; native heteromeric receptor in isolated rat CA1 pyramidal neurons
# [2] = system: T2, calcium-permeable AMPA receptors (native, giant cholinergic interneurons of the striatum); assay: whole-cell patch clamp, kainate-evoked current; format: cell-based, Rattus norvegicus; conditions: dark (trans), -70 mV, 100 µM kainate, pH 7.4, 22-24 °C; open channel pore block plus minor voltage-independent site; unit inferred, µM from context
# T2 construct: gene Gria1; native GluA2(R)-lacking receptors in isolated rat striatal giant interneurons
Structure (SMILES),IC50 [1] [µM],IC50 [2] [µM]
C=CC(=O)Nc1ccc(/N=N/c2ccc(NC(=O)C[N+](CC)(CC)CC)cc2)cc1 [AAQ],19 ± 1.4,28.5 ± 1.1
CC[N+](CC)(CC)CC(=O)Nc1ccc(N=Nc2ccc(NC(=O)C[N+](CC)(CC)CC)cc2)cc1 [QAQ],18.6 ± 1,17 ± 2
